Values quoted from earlier work as cited in paper PMC6784055 (Toxins, 2019).

System: rat brain sodium channel
Conditions: relative to PbTx1

Structure (SMILES): C[C@@H]1C[C@@H]2O[C@@H]3[C@@H](C)[C@H](O)[C@@H]4O[C@]5(C[C@H](O)CO5)[C@@H](C)[C@H](C)[C@H]4O[C@H]3C[C@H]2O[C@H]2C[C@H]3O[C@H]4C/C=C\C[C@H]5O[C@H]6C=C[C@H]7O[C@H]8[C@H](O)[C@H]9O[C@@H](/C=C/[C@H](O)CO)C=CC[C@@H]9O[C@@H]8C[C@@H]7O[C@@H]6C=C[C@@H]5O[C@@H]4C[C@@H](O)[C@]3(C)O[C@@H]2C1 [ciguatoxin-1B]
- binding affinity stronger than that of PbTx1: 50 fold
